Measured values as given in PubChem BioAssay (NCI).
Where “and” joins values, the source holds several entries; their conditions need not be identical. Identical values can stand only once.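 Test compounds were applied to cells in 96-well plates for 48 hours at 5 doses. GI50 = concentration required for 50% inhibition of growth. TGI: total growth inhibition.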

Columns and labels:
Experiment in all cases: DTP human tumour cell line panel, 48 h
OVCAR-3 ovarian = system: OVCAR-3 ovarian
MALME-3M melanoma = system: MALME-3M melanoma
SK-MEL-5 melanoma = system: SK-MEL-5 melanoma
NCI-H23 lung = system: NCI-H23 lung
SW-620 colon = system: SW-620 colon
K-562 leukemia = system: K-562 leukemia
UACC-62 melanoma = system: UACC-62 melanoma
MOLT-4 leukemia = system: MOLT-4 leukemia
HS 578T breast = system: HS 578T breast
RXF 393 renal = system: RXF 393 renal

Cn1c(I)c(C#C[Si](C)(C)C)c(=O)[nH]c1=O
GI50 (OVCAR-3 ovarian): 1.9 µM | TGI (OVCAR-3 ovarian): 3.39 µM | GI50 (MALME-3M melanoma): 1.96 µM | TGI (MALME-3M melanoma): 4.25 µM | GI50 (SK-MEL-5 melanoma): 17.1 µM | TGI (SK-MEL-5 melanoma): 31 µM | GI50 (NCI-H23 lung): 4.25 µM | TGI (NCI-H23 lung): 17.3 µM | GI50 (SW-620 colon): 1.71 µM | TGI (SW-620 colon): 3.23 µM | GI50 (K-562 leukemia): 1.68 µM | TGI (K-562 leukemia): 4.08 µM | GI50 (UACC-62 melanoma): 6.4 µM | TGI (UACC-62 melanoma): 19.8 µM | GI50 (MOLT-4 leukemia): 2.54 µM | TGI (MOLT-4 leukemia): 5.76 µM | GI50 (HS 578T breast): 2.3 µM | TGI (HS 578T breast): 7.08 µM | GI50 (RXF 393 renal): 0.639 µM | TGI (RXF 393 renal): 1.74 µM

Cc1c(-c2ccccn2)ccc2ccccc12
TGI (OVCAR-3 ovarian): > 100 µM | TGI (MALME-3M melanoma): > 100 µM | TGI (SK-MEL-5 melanoma): > 100 µM | TGI (NCI-H23 lung): > 100 µM | TGI (SW-620 colon): > 100 µM | TGI (K-562 leukemia): > 100 µM | TGI (UACC-62 melanoma): > 100 µM | TGI (MOLT-4 leukemia): > 100 µM | TGI (HS 578T breast): > 100 µM | TGI (RXF 393 renal): 93.2 µM

COc1ccc2c(c1)-c1c(c3cc(OC)ccc3n(CCN(C)C)c1=O)C2=O
GI50 (OVCAR-3 ovarian): 0.843 µM | TGI (OVCAR-3 ovarian): 4.73 µM | GI50 (MALME-3M melanoma): 1.17 µM | TGI (MALME-3M melanoma): 5.65 µM | GI50 (SK-MEL-5 melanoma): 2.6 µM | TGI (SK-MEL-5 melanoma): 8.92 µM | GI50 (NCI-H23 lung): 1.59 µM | TGI (NCI-H23 lung): 8.82 µM | GI50 (SW-620 colon): 0.208 µM | TGI (SW-620 colon): 2.95 µM | GI50 (K-562 leukemia): 0.28 µM | TGI (K-562 leukemia): 3.09 µM | GI50 (UACC-62 melanoma): 3.11 µM | TGI (UACC-62 melanoma): 9.73 µM | GI50 (MOLT-4 leukemia): 0.174 µM | TGI (MOLT-4 leukemia): 0.953 µM | GI50 (HS 578T breast): 1.7 µM | TGI (HS 578T breast): 7.81 µM | GI50 (RXF 393 renal): 1.59 µM | TGI (RXF 393 renal): 7.23 µM

CNC(=O)c1cc(Oc2ccc(NC(=O)Nc3cc(C(C)(C)C)nn3-c3ccc4ncccc4c3)c(F)c2)ccn1
GI50 (OVCAR-3 ovarian): 2.36 µM and 2.21 µM | TGI (OVCAR-3 ovarian): 7.96 µM and 6.35 µM | GI50 (MALME-3M melanoma): 0.212 µM and 0.0536 µM | TGI (MALME-3M melanoma): 1.31 µM and 0.5 µM | GI50 (SK-MEL-5 melanoma): 1.35 µM and 1.51 µM | TGI (SK-MEL-5 melanoma): 2.86 µM and 3.14 µM | GI50 (NCI-H23 lung): 1.65 µM and 1.26 µM | TGI (NCI-H23 lung): 5.91 µM and 4.78 µM | GI50 (SW-620 colon): 3.51 µM and 3.16 µM | TGI (SW-620 colon): > 29.6 µM | GI50 (K-562 leukemia): 0.0151 µM and 0.0275 µM | TGI (K-562 leukemia): > 100 µM | GI50 (UACC-62 melanoma): 0.0743 µM and 0.0624 µM | TGI (UACC-62 melanoma): 1.62 µM and 1.18 µM | GI50 (MOLT-4 leukemia): 1.58 µM and 2.08 µM | TGI (MOLT-4 leukemia): 8.06 µM and 5.85 µM | GI50 (HS 578T breast): 1.14 µM and 1.03 µM | TGI (HS 578T breast): 5.42 µM and 5.03 µM | GI50 (RXF 393 renal): 0.821 µM and 0.647 µM | TGI (RXF 393 renal): 2.61 µM and 2.05 µM

CC1(C)C(=O)/C=C\C(=O)C(C)(C)C(=O)/C=C\C(=O)C(C)(C)C2=CC=C(O2)C(C)(C)C(=O)/C=C\C1=O
TGI (OVCAR-3 ovarian): 9.41 µM | TGI (MALME-3M melanoma): 4.11 µM | TGI (SK-MEL-5 melanoma): 21.2 µM | TGI (NCI-H23 lung): 15.6 µM | TGI (SW-620 colon): 3.59 µM | TGI (K-562 leukemia): > 46.9 µM | TGI (UACC-62 melanoma): 15.7 µM | TGI (MOLT-4 leukemia): 4.81 µM | TGI (HS 578T breast): 50 µM | TGI (RXF 393 renal): 4.73 µM

S=C(SSC(=S)N1CCCCC1)N1CCCCC1
GI50 (OVCAR-3 ovarian): 11.3 µM | TGI (OVCAR-3 ovarian): 24.2 µM | GI50 (MALME-3M melanoma): 16.4 µM | TGI (MALME-3M melanoma): 50.4 µM | GI50 (SK-MEL-5 melanoma): 4.34 µM | TGI (SK-MEL-5 melanoma): 59.8 µM | GI50 (NCI-H23 lung): 16.3 µM | TGI (NCI-H23 lung): 36 µM | GI50 (SW-620 colon): 13.4 µM | TGI (SW-620 colon): 26.9 µM | GI50 (K-562 leukemia): 22.5 µM | TGI (K-562 leukemia): > 100 µM | GI50 (UACC-62 melanoma): 16 µM | TGI (UACC-62 melanoma): 49.1 µM | GI50 (MOLT-4 leukemia): 17.2 µM | TGI (MOLT-4 leukemia): 49.5 µM | GI50 (HS 578T breast): 21 µM | TGI (HS 578T breast): > 100 µM | GI50 (RXF 393 renal): 14.2 µM | TGI (RXF 393 renal): 35.8 µM

Oc1[nH]c2ccccc2c1C=Nc1ccc(-n2cncn2)cc1
GI50 (OVCAR-3 ovarian): > 20.9 µM | TGI (OVCAR-3 ovarian): > 25 µM | GI50 (MALME-3M melanoma): > 16 µM | TGI (MALME-3M melanoma): > 25 µM | GI50 (SK-MEL-5 melanoma): 8.74 µM | TGI (SK-MEL-5 melanoma): > 25 µM | GI50 (NCI-H23 lung): > 21.9 µM | TGI (NCI-H23 lung): > 25 µM | GI50 (SW-620 colon): > 25 µM | TGI (SW-620 colon): > 25 µM | GI50 (K-562 leukemia): 13.6 µM | TGI (K-562 leukemia): > 25 µM | GI50 (UACC-62 melanoma): 14.6 µM | TGI (UACC-62 melanoma): > 25 µM | GI50 (MOLT-4 leukemia): 20.4 µM | TGI (MOLT-4 leukemia): > 25 µM | GI50 (HS 578T breast): > 25 µM | TGI (HS 578T breast): > 25 µM | GI50 (RXF 393 renal): > 14.5 µM | TGI (RXF 393 renal): > 25 µM

CSc1ccc(C(=O)/C=C/c2ccc(Cl)cc2Cl)cc1
GI50 (OVCAR-3 ovarian): 21.9 µM | TGI (OVCAR-3 ovarian): 49.2 µM | GI50 (MALME-3M melanoma): 29.1 µM | TGI (MALME-3M melanoma): > 100 µM | GI50 (SK-MEL-5 melanoma): 21.9 µM | TGI (SK-MEL-5 melanoma): 59 µM | GI50 (NCI-H23 lung): 21.9 µM | TGI (NCI-H23 lung): 57.4 µM | GI50 (SW-620 colon): 22.2 µM | TGI (SW-620 colon): 56 µM | GI50 (K-562 leukemia): 6.48 µM | TGI (K-562 leukemia): 49.5 µM | GI50 (UACC-62 melanoma): 24.3 µM | TGI (UACC-62 melanoma): 78.5 µM | GI50 (MOLT-4 leukemia): 16.4 µM | TGI (MOLT-4 leukemia): 33.9 µM | GI50 (HS 578T breast): 28.6 µM | TGI (HS 578T breast): 68.4 µM | GI50 (RXF 393 renal): 16.4 µM | TGI (RXF 393 renal): 36.2 µM

CCOC(=O)/C=C1/SC(=Nc2ccc(C#N)cc2)N(Cc2ccco2)C1=O
GI50 (OVCAR-3 ovarian): 1.82 µM | TGI (OVCAR-3 ovarian): 3.52 µM | GI50 (MALME-3M melanoma): 2.45 µM | TGI (MALME-3M melanoma): 9.65 µM | GI50 (SK-MEL-5 melanoma): 6.71 µM | TGI (SK-MEL-5 melanoma): 20.4 µM | GI50 (NCI-H23 lung): 10.6 µM | TGI (NCI-H23 lung): 34.5 µM | GI50 (SW-620 colon): 2.06 µM | TGI (SW-620 colon): 4.97 µM | GI50 (K-562 leukemia): 3.16 µM | TGI (K-562 leukemia): 11.4 µM | GI50 (UACC-62 melanoma): 2.23 µM | TGI (UACC-62 melanoma): 5.25 µM | GI50 (MOLT-4 leukemia): 2.81 µM | TGI (MOLT-4 leukemia): 8.31 µM | GI50 (HS 578T breast): 6.96 µM | TGI (HS 578T breast): > 100 µM | GI50 (RXF 393 renal): 1.48 µM | TGI (RXF 393 renal): 2.96 µM

COc1ccc2c(c1)C(=O)c1c-2n(CCCN(C)C)c(=O)c2cc([N+](=O)[O-])ccc12
GI50 (OVCAR-3 ovarian): 0.0191 µM | TGI (OVCAR-3 ovarian): 0.748 µM | GI50 (MALME-3M melanoma): 0.0207 µM | TGI (MALME-3M melanoma): 0.892 µM | GI50 (SK-MEL-5 melanoma): < 0.01 µM | TGI (SK-MEL-5 melanoma): < 0.012 µM | GI50 (NCI-H23 lung): < 0.01 µM | TGI (NCI-H23 lung): 0.0849 µM | GI50 (SW-620 colon): < 0.01 µM | TGI (SW-620 colon): 1.34 µM | GI50 (K-562 leukemia): < 0.01 µM | TGI (K-562 leukemia): 2.29 µM | GI50 (UACC-62 melanoma): < 0.01 µM | TGI (UACC-62 melanoma): < 0.01 µM | GI50 (MOLT-4 leukemia): < 0.01 µM | TGI (MOLT-4 leukemia): 0.282 µM | GI50 (HS 578T breast): 3.04 µM | TGI (HS 578T breast): 21.3 µM | GI50 (RXF 393 renal): < 0.01 µM | TGI (RXF 393 renal): 0.0926 µM
